Results published in patent publication US5436254A, “Carbostyril derivatives” (Otsuka Pharmaceutical Company, Ltd., priority 1989, dated 1995).

Legend:
[1] = target: V1 receptor (Rattus norvegicus, UniProt P30560); assay: biochemical; assay type: binding
[2] = test system: increase of diastolic pressure caused by Arg-vasopressin; assay: Anti-vasopressor activity in vivo (pith rat, increase of diastolic pressure by Arg-vasopressin); design: species or system male SD rat; conditions: iv, read-out: ED50 (dose required to reduce the increase of diastolic pressure caused by Arg-vasopressin to 50 % of its control value)

Sequence of V1 receptor (P30560 whole entry): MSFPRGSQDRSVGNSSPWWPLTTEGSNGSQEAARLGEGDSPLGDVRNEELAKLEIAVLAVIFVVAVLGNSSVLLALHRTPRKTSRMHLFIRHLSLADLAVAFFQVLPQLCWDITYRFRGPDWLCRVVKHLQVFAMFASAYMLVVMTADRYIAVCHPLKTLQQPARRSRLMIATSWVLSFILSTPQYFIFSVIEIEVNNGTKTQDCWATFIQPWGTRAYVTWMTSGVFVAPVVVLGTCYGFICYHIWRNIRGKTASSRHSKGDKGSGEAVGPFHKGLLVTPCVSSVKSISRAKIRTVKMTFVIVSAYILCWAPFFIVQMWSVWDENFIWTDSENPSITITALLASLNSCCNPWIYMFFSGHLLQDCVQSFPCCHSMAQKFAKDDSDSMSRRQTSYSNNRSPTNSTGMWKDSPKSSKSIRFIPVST

Question: With `COc1ccc(C(=O)N2CCC(N3C(=O)CCc4ccccc43)CC2)c(OC)c1` [Example 47, 1-[1-(2,4-Dimethoxybenzoyl)-4-piperidinyl]-3,4-dihydrocarbostyril] as the compound, how does the IC50 [1] read?
Answer: 100 nM

Question: What about the ED50 [2] of the same compound?
Answer: 0.4 mg/kg

Question: For `COc1cc(OCCCCC(=O)N2CC[S+]([O-])CC2)ccc1C(=O)N1CCC(N2C(=O)CCc3ccccc32)CC1` [Example 295, 1-{1-(2-Methoxy-4-[4-(4-oxothiomorpholino)carbonylbutyloxy)benzoyl]-4-piperidinyl}-3,4-dihydrocarbostyril], which IC50 [1] is on record?
Answer: 77 nM

Question: How did the IC50 [1] turn out when `COc1cc(OCCCCC(=O)N2CCS(=O)(=O)CC2)ccc1C(=O)N1CCC(N2C(=O)CCc3ccccc32)CC1` [Example 296, 1-{1-(2-Methoxy-4-[4-(4,4-dioxothiomorpholino)carbonylbutyloxy]benzoyl]-4-piperidinyl}-3,4-dihydrocarbostyril] was run?
Answer: 73 nM

Question: Which IC50 [1] does the source give for `COc1cccc(CNCC(O)CCCCOc2ccc(C(=O)N3CCC(N4C(=O)CCc5ccccc54)CC3)cc2)c1` (centres unmarked) [Example 298, 1-{1-(4-[5-Hydroxy-6-(3-methoxybenzylamino)hexyloxy]benzoyl)-4-piperidinyl}-3,4-dihydrocarbostyril] here?
Answer: 65 nM

Question: For `COc1ccc(CNCC(O)CCCCOc2ccc(C(=O)N3CCC(N4C(=O)CCc5ccccc54)CC3)cc2)cc1OC` (centres unmarked) [Example 299, 1-{1-(4-[5-Hydroxy-6-(3,4-dimethoxybenzylamino)hexyloxy]benzoyl)-4-piperidinyl}-3,4-dihydrocarbostyril.oxalate], which IC50 [1] is on record?
Answer: 65 nM

Question: For `CN(CCc1ccccn1)CC(O)CCCCOc1ccc(C(=O)N2CCC(N3C(=O)CCc4ccccc43)CC2)cc1` (centres unmarked) [Example 300, 1-{1-(4-[5-Hydroxy-6-(N-methyl-N-(2-(2-pyridyl)ethyl)amino)hexyloxy]benzoyl]-4-piperidinyl}-3,4-dihydrocarbostyril], which IC50 [1] is on record?
Answer: 34 nM

Question: With `CC[N+](C)(CC)CC(CCCCOc1ccc(C(=O)N2CCC(N3C(=O)CCc4ccccc43)CC2)cc1)OC` (centres unmarked) [Example 301, 1-{1-[4-(5-Methoxy-6-diethylmethylammoniumhexyloxy)benzoyl]-4-piperidinyl}-3,4-dihydrocarbostyril.iodine] as the compound, how does the IC50 [1] read?
Answer: 47 nM

Question: Which IC50 [1] does the source give for `NC(=O)[C@@H]1CCCN1CC(O)CCCCOc1ccc(C(=O)N2CCC(N3C(=O)CCc4ccccc43)CC2)cc1` (some centres unmarked) [Example 302] here?
Answer: 88 nM

Question: For `O=C(c1ccc(OCCCCC(O)CN2CCCCC2)cc1)N1CCC(N2C(=O)CCc3ccccc32)CC1` (centres unmarked) [Example 303, 1-{1-[4-(5-Hydroxy-6-(1-piperidinyl)hexyloxy)benzoyl]-4-piperidinyl}-3,4-dihydrocarbostyril], which IC50 [1] is on record?
Answer: 38 nM

Question: How did the IC50 [1] turn out when `O=C(c1ccc(OCCCCC(O)CN2CCC(Cc3ccccc3)CC2)cc1)N1CCC(N2C(=O)CCc3ccccc32)CC1` (centres unmarked) [Example 304, 1-{1-(4-[5-Hydroxy-6-(4-benzyl-1-piperidinyl)hexyloxy]benzoyl]-piperidinyl}-3,4-dihydrocarbostyril] was run?
Answer: 37 nM

Question: Which IC50 [1] does the source give for `CCN(CC)CC(CCCCOc1ccc(C(=O)N2CCC(N3C(=O)CCc4ccccc43)CC2)cc1)OC(C)=O` (centres unmarked) [Example 305, 1-{1-[4-(5-Acetoxy-6-diethylaminohexyloxy)benzoyl]-4-piperidinyl)-3,4-dihydrocarbostyril] here?
Answer: 65 nM

Question: With `CCOc1ccc(C(=O)N2CCC(N3C(=O)CCc4c(F)cccc43)CC2)c(OC)c1` [Example 306, 5-Fluoro-1-[1-(2-methoxy-4-ethoxybenzoyl)-4-piperidinyl}-3,4-dihydrocarbostyril] as the compound, how does the IC50 [1] read?
Answer: 84 nM

Question: For `CCN(CC)CCCCCCOc1ccc(C(=O)N2CCC(N3C(=O)CCc4c(C)cccc43)CC2)cc1` [Example 307, 5-Methyl-1-{1-[4-(6-diethylaminohexyloxy)benzoyl]-4-piperidinyl}-3,4-dihydrocarbostyril], which IC50 [1] is on record?
Answer: 23 nM

Question: With `CCOc1ccc(C(=O)N2CCC(N3C(=O)CCc4c(O)cccc43)CC2)c(OC)c1` [Example 308, 5-Hydroxy-1-[1-(2-methoxy-4-ethoxybenzoyl)-4-piperidinyl}-3,4-dihydrocarbostyril] as the compound, how does the IC50 [1] read?
Answer: 95 nM

Question: With `CCOc1ccc(C(=O)N2CCC(N3C(=O)CCc4c(OC(C)=O)cccc43)CC2)c(OC)c1` [Example 309, 5-Acetoxy-1-[1-(2-Methoxy-4-ethoxybenzoyl)-4-piperidinyl]-3,4-dihydrocarbostyril] as the compound, how does the IC50 [1] read?
Answer: 73 nM

Question: Which IC50 [1] does the source give for `CS(=O)(=O)NCC(=O)NCCCCCOc1ccc(C(=O)N2CCC(N3C(=O)CCc4ccccc43)CC2)cc1` [Example 310, 1-{1-(4-[5-(2-Methanesulfonylaminoacetylamino)pentyloxy]benzoyl)-4-piperidinyl]-3,4-dihydrocarbostyril] here?
Answer: 160 nM
